Assay type in all cases: functional, cell-based
The subject of one assay is LN-229. In words: Antiproliferative activity against human LN-229 cells assessed as inhibition of cell growth measured after 72 hrs by CCK-8 assay. To be noted: LN-229, 72 h. (Tetrazolium dyes change colour on reduction, which living cells bring about.)
The test system of the next assay is U-251. In words: Antiproliferative activity against human U-251MG cells assessed as inhibition of cell growth measured after 72 hrs by CCK-8 assay. Particulars: U-251, 72 h.
The test system of a further assay is H4. The assay can be described thus: Antiproliferative activity against human H4 cells assessed as inhibition of cell growth measured after 72 hrs by CCK-8 assay. Particulars: H4, 72 h.
The next assay has as its system Hs 683. The assay can be described thus: Antiproliferative activity against human Hs 683 cells assessed as inhibition of cell growth measured after 72 hrs by CCK-8 assay. To be noted: Hs 683, 72 h.

Broadly, the IC50 is the point on the concentration scale where inhibition reaches its midpoint. Regarding `N#CC1(C(=O)NCc2cccc(Cl)c2Cl)CC2c3ccccc3C1c1ccccc12` (racemic), the IC50 in the assay with LN-229, in the assay with U-251, with H4 and in the assay on Hs 683 was more than 80 µM in each case.

As to `COc1cc(NC(=O)C2(C#N)CC3c4ccccc4C2c2ccccc23)cc(OC)c1` (racemic), the IC50 in the assay on LN-229, with U-251, in the assay on H4 and in the assay with Hs 683 was more than 80 µM throughout.

In the case of `Cc1ccccc1NC(=O)C1(C#N)CC2c3ccccc3C1c1ccccc12` (racemic), the IC50 with LN-229, in the assay with U-251, with H4 and in the assay with Hs 683 was more than 80 µM each time.

Turning to `N#CC1(C(=O)NCCc2cccc(F)c2)CC2c3ccccc3C1c1ccccc12` (racemic), the IC50 in the assay with LN-229 came to 33 µM; in the assay with U-251, 40.5 µM; in the assay with H4, 50 µM; in the assay with Hs 683 it was 46.6 µM.

On to `N#CC1(C(=O)Nc2ccc(F)cc2)CC2c3ccccc3C1c1ccccc12` (racemic), for which the IC50 in the assay on LN-229, with U-251, in the assay on H4 and in the assay with Hs 683 was more than 80 µM in each case.

On to `N#CC1(C(=O)NCC2CCN(Cc3ccccc3)CC2)CC2(Br)c3ccccc3C1c1ccccc12` (racemic), for which the IC50 in the assay with LN-229 came to 5.94 µM; with U-251, 15.7 µM; with H4, 3.32 µM; with Hs 683, 14.9 µM.

As for `N#CC1(C(=O)NCC2CCN(Cc3ccc(F)cc3)CC2)CC2(Br)c3ccccc3C1c1ccccc12` (racemic), the concentration for half-maximal inhibition (IC50) in the assay on LN-229, in the assay with U-251, in the assay on H4 and with Hs 683 was more than 80 µM throughout.

With `N#CC1(C(=O)NCCc2cccc(Cl)c2)CC2c3ccccc3C1c1ccccc12` (racemic), the IC50 was 36.6 µM in the assay on LN-229, 54.3 µM in the assay with U-251, 18.8 µM with H4 and more than 80 µM in the assay on Hs 683.

`N#CC1(C(=O)Nc2ccc(N)cc2)CC2c3ccccc3C1c1ccccc12` (racemic): the IC50 in the assay with LN-229 was more than 80 µM; in the assay with U-251, more than 80 µM; in the assay on H4, 61.7 µM; in the assay with Hs 683, more than 80 µM.

Turning to `N#CC1(C(=O)NCCc2ccc3c(c2)OCO3)CC2c3ccccc3C1c1ccccc12` (racemic), the IC50 in the assay with LN-229 is 36.8 µM; in the assay with U-251, more than 80 µM; with H4 it was more than 80 µM; in the assay on Hs 683, 44 µM.

`N#CC1(C(=O)NCCc2ccccc2F)CC2c3ccccc3C1c1ccccc12` (racemic): the IC50 was 49 µM in the assay on LN-229, 38.1 µM in the assay on U-251, 26 µM with H4 and more than 80 µM in the assay with Hs 683.

With `N#CC1(C(=O)NCc2ccccc2)CC2c3ccccc3C1c1ccccc12` (racemic), the IC50 in the assay on LN-229, in the assay with U-251, in the assay on H4 and with Hs 683 was more than 80 µM throughout.

As to `O=C(NCCC1CCN(Cc2ccccc2)CC1)C1(Cl)CC2(Br)c3ccccc3C1c1ccccc12` (racemic), the IC50 in the assay with LN-229 is 12.4 µM; in the assay with U-251, 24.1 µM; in the assay on H4, 19.1 µM; with Hs 683, 38.7 µM.

Take `N#CC1(C(=O)NCCc2ccc(F)cc2)CC2(Br)c3ccccc3C1(Br)c1ccccc12` (racemic): the 50% inhibitory concentration (IC50) with LN-229 was more than 80 µM; with U-251 it was more than 80 µM; in the assay with H4, 54 µM; with Hs 683, more than 80 µM.

Regarding `N#CC1(C(=O)NCCc2ccc([N+](=O)[O-])cc2)CC2c3ccccc3C1c1ccccc12` (racemic), the IC50 was 23.8 µM with LN-229, 48.3 µM with U-251, 36.9 µM in the assay on H4 and more than 80 µM with Hs 683.

On to `N#CC1(C(=O)NCCc2ccc(F)cc2)CC2(CCl)c3ccccc3C1c1ccccc12` (racemic), for which the IC50 with LN-229 was 60.2 µM; in the assay on U-251, 34.9 µM; with H4, 32.6 µM; in the assay with Hs 683 it was 52.8 µM.

Take `COc1ccc(NC(=O)C2(C#N)CC3c4ccccc4C2c2ccccc23)cc1C` (racemic): the IC50 with LN-229, with U-251, in the assay with H4 and with Hs 683 was more than 80 µM in each case.

On to `N#CC1(C(=O)NCCC2CCN(Cc3ccccc3)CC2)CC2c3ccccc3C1c1ccccc12` (racemic), for which the IC50 turned out to be 11.6 µM in the assay on LN-229, 35.9 µM in the assay with U-251, 26.6 µM in the assay on H4 and 19.1 µM with Hs 683.

With `N#CC1(C(=O)NCCc2ccc(F)cc2)CC2(CO)c3ccccc3C1c1ccccc12` (racemic), the IC50 in the assay on LN-229 came out at 15 µM; with U-251 it was 39.8 µM; in the assay with H4 it was 30.7 µM; in the assay on Hs 683 it was 21.8 µM.

In the case of `N#CC1(C(=O)NCCc2ccc(F)cc2)CC2(Br)c3ccccc3C1c1ccccc12` (racemic), the IC50 in the assay on LN-229 was 14.6 µM; in the assay on U-251 it was 21.4 µM; with H4, 15.3 µM; in the assay on Hs 683, 19.8 µM.

Consider `Cc1ccc(CCNC(=O)C2(C#N)CC3c4ccccc4C2c2ccccc23)cc1` (racemic), for which the IC50 was 60.8 µM with LN-229, more than 80 µM in the assay with U-251, more than 80 µM in the assay on H4 and 39.9 µM with Hs 683.

For `N#CC1(C(=O)NCCC2CCN(Cc3ccc(F)cc3)CC2)CC2(Br)c3ccccc3C1c1ccccc12` (racemic), the IC50 in the assay on LN-229 stood at 18.7 µM; in the assay on U-251, 18.1 µM; in the assay with H4, 18 µM; in the assay on Hs 683 it was 21.9 µM.

In the case of `N#CC1(C(=O)NCCc2ccc(F)cc2)CC2c3ccccc3C1c1ccccc12` (racemic), the IC50 in the assay on LN-229 was 32.5 µM; in the assay with U-251, 52.3 µM; with H4, 35.2 µM; in the assay on Hs 683, 43.6 µM.

With `COc1cc(NC(=O)C2(C#N)CC3c4ccccc4C2c2ccccc23)cc(OC)c1OC` (racemic), the IC50 in the assay with LN-229, in the assay on U-251, in the assay on H4 and in the assay on Hs 683 was more than 80 µM throughout.

Take `O=C(NCCc1ccc(F)cc1)C1(Cl)CC2(Br)c3ccccc3C1c1ccccc12` (racemic): the IC50 in the assay on LN-229, with U-251, in the assay with H4 and with Hs 683 was more than 80 µM in each case.

Regarding `N#CC1(C(=O)NC2CCN(Cc3ccccc3)CC2)CC2(Br)c3ccccc3C1c1ccccc12` (racemic), the IC50 in the assay with LN-229 came out at 7.36 µM; with U-251, 25.1 µM; in the assay with H4, 9.84 µM; in the assay on Hs 683 it was 11.3 µM.

Consider `CC12CC(C#N)(C(=O)NCCc3ccc(F)cc3)C(c3ccccc31)c1ccccc12` (racemic), for which the IC50 came to 28.9 µM with LN-229, 18.7 µM in the assay on U-251, 22.3 µM in the assay on H4 and 24.6 µM in the assay with Hs 683.

As to `N#CC1(C(=O)Nc2ccc3c(c2)OCO3)CC2c3ccccc3C1c1ccccc12` (racemic), the IC50 in the assay with LN-229 is 45.5 µM; in the assay with U-251 it was 72.6 µM; in the assay on H4, 20 µM; in the assay with Hs 683, more than 80 µM.

In the case of `COc1ccc(NC(=O)C2(C#N)CC3c4ccccc4C2c2ccccc23)cc1` (racemic), the concentration for half-maximal inhibition (IC50) in the assay with LN-229, in the assay with U-251, in the assay on H4 and in the assay with Hs 683 was more than 80 µM in each case.

With `CC(=O)C12CC(C#N)(C(=O)NCCc3ccc(F)cc3)C(c3ccccc31)c1ccccc12` (racemic), the IC50 with LN-229 worked out at 29.5 µM; in the assay on U-251, 18.8 µM; in the assay with H4, 24.7 µM; in the assay with Hs 683, 20.7 µM.

The values are drawn from ChEMBL document CHEMBL5528066, “Discovery of Novel N-(Anthracen-9-ylmethyl) Benzamide Derivatives as ZNF207 Inhibitors Promising in Treating Glioma” (J Med Chem, 2024).
